{
  "source": "patent US7449495B2",
  "about": "“Retinoid derivatives with antiangiogenic, antitumoral and proapoptotic activities” (Sigma-Tau Industrie Farmaceutiche Riunite S.p.A., priority 2001, dated 2008)",
  "key": {"[1]": {"tested_on": "chicken chorioallantoic membrane vessels, bFGF induced", "assay": "Angiostatic activity in chicken chorioallantoic membrane (CAM) model", "format": "in vivo", "conditions": "for 12th day (72 hours), number of vessels per sponge / Δvessels: mean ± SE", "description": "The chicken chorioallantoic membrane is a very vascularised membrane in which the vessels make their appearance at the 4th day of development, develop an arteriovenal system by the 8th day of development, and actively proliferate until the 11th day.\nThe aim of the study was to follow vasal development in the CAM under basal conditions and in the presence of an inducer bFGF (basic Fibroblast Growth Factor) of vasoproliferation. This study used chicken embryonal eggs at the initial stage of their development. On the 3rd day of development an operation to open the shells was performed to make the vessels of the CAM visible. The treatment was administered on the 9th day of development by applying a fragment of sterile gelatine (GELFOAM Pharmacia-Upjohn) about 1 mm^3, to the CAM surface, onto which was administered the bFGF (50 ng/embryo) or the products in question, for 3 consecutive days.\nThe evaluation of the effect of the molecule on vasoproliferation was obtained by a comparison of the vessels at the time of zero treatment with these of later times (12th day)."}, "[2]": {"tested_on": "human microvascular endothelial (HMVE) cells", "conditions": "after 96 h of treatment, cited from earlier work; for inhibition (%) at 0.5 μM: relative to vehicle alone control; for IC50: highest concentration evaluated 0.5 μM, read-out: IC50 (concentration inhibiting proliferation by 50%)"}, "[3]": {"tested_on": "human no small cell lung carcinoma NCI-H460", "assay": "Antitumoral activity in human no small cell lung carcinoma model NCI-H460", "format": "in vivo", "conditions": "NCI-H460, 15 mg/kg ip, q7dx3", "description": "The ST1926 solution was prepared immediately before use and solubilised in cremophor:ethanol 1:1 and subsequently diluted 1:4 in buffered saline solution. The animal treatments were administered in a volume of 10 ml/kg. […] Measurements of tumor dimensions were performed using a digital calliper (Vernier Caliper) twice weekly, from the time in which the mass was measurable. The tumor mass was evaluated from the size of the two principal dimensions (length and breadth), expressed in mm, applying the formula (length×breadth^2)/2, that is, the tumor volume in mm3. For each experimental group, the percentage of tumor volume inhibition was calculated (TVI %), with respect to the control, namely (100−(T/C %). TVI was evaluated 2 days after the final administration of ST1926.\nA comparison between the TVI values obtained for each group was performed using the non parametric Mann Whitney test for non-paired data, using the Instat software from GraphPad inc."}, "[4]": {"tested_on": "Human prostate carcinoma PC3", "assay": "Cytotoxicity test (sulphorodamine B), PC3", "format": "cell-based", "conditions": "24 h incubation, survival 48 h after removal, read-out: IC50 ± SD", "description": "(§1) Different cell lines deriving from solid tumors were also used. • 1. Human prostate carcinoma PC3 and DU145. These cell lines were maintained in RPMI 1640 medium containing 10% FCS, 1% sodium pyruvate and 1% glutamine; • 2. Human colon adenocarcinoma LoVo. This cell line was maintained in HAM's F-12 medium, containing 10% FCS and 1% glutamine. • 3. Human ovarian carcinoma such as A2780 and A2780/Dx, sensitive and resistant to drugs, respectively (doxorubicin, taxol, etoposide, vincristine); IGROV-1 and IGROV-1/Pt, sensitive and resistant to platinum-based chemotherapy, respectively, were maintained in RPMI 1640 medium containing 10% FCS, 1% sodium pyruvate and 1% glutamine; • 4. Human melanoma MeWo and MeS 2.21, glioblastoma GBM, no small cell lung carcinomas A431, NCI—H460, osteosarcomas SAOS and U2OS were maintained in RPMI 1640 medium containing 10% FCS, 1% sodium pyruvate and 1% glutamine.\n(§2) The cytotoxicity tests were carried out using NB4 or HL-60 cells in suspension (10000/well). The cells were seeded in a volume of 250 μl in 96 well plates and incubated for 24 hours at 37° C. […] The optical density was measured using a Multiskan spectrophotometer at 540 nm. […]\n(§3) Cell survival was determined by incubation with ST1926 for 24 hours, 48 hours after the removal of the compound. […]"}, "[5]": {"tested_on": "NB4 acute promyelocytic leukaemia cell line", "assay": "Cytotoxicity test (sulphorodamine B), NB4", "format": "cell-based, human", "conditions": "Homo sapiens, 24 h incubation, survival 48 h after removal, read-out: IC50 ± SD", "description": "To carry out the cytotoxicity tests, two acute promyelocytic leukaemia (APL) cell lines were used. • 1. Cell line NB4, carrying the chromosomal translocation t(15; 17) which generates the fusion protein PML/RARα. This cell line is extremely sensitive to the differentiating action of pharmaceutical doses of ATRA (10^−7-10^−6 M); • 2. Cell line HL60, which responds to ATRA less sensitively with respect to cell line NB4.\nThese cell lines were maintained in RPMI 1640 containing 10% foetal calf serum (FCS) and 1% glutamine.\nThe cytotoxicity tests were carried out using NB4 or HL-60 cells in suspension (10000/well). The cells were seeded in a volume of 250 μl in 96 well plates and incubated for 24 hours at 37° C. The following day, test compound ST 1926 [(2E)-3-[3′-(1-Adamantyl)-4′-hydroxy[1,1′-biphenyl]-4-yl]-2-propenoate/ic acid] was added at increasing concentrations, and the cells were incubated for a further 24 hours at 37° C. in a humidified atmosphere containing 5% CO2. On the 3rd day, the medium was removed by centrifuging the plate at 1600×g for 10 min and the supernatant decanted. 250 μl of PBS were added; then the plates were centrifuged again at 1600×g for 10 minutes and the supernatant decanted. 200 μl/well of RPMI 1640 medium containing 10% FCS were added and the plates were incubated at 37° C. for a further 48 hours. On the 5th day, the plates were again centrifuged at 1600×g for 10 minutes, and the medium was removed by upturning the plates, 200 μl of PBS and 50 μl of cold, 80% TCA were added. The plates were then left to incubate on ice for at least 1 hour. The TCA was removed by upturning; the plates were washed three times by immersion in distilled water and dried first on paper, then with a jet of hot air. To all wells were added 200 μl of 0.4% sulphorodamine B in 1% acetic acid. The plates were incubated at room temperature for a further 30 minutes. […] The optical density was measured using a Multiskan spectrophotometer at 540 nm.\nas §3"}, "[6]": {"tested_on": "Human colon adenocarcinoma LoVo", "assay": "Cytotoxicity test (sulphorodamine B), LoVo", "format": "cell-based", "conditions": "24 h incubation, survival 48 h after removal, read-out: IC50 ± SD", "description": "as §1, §2, §3"}, "NB4 cells": {"tested_on": "NB4 cells", "assay": "Pro-differentiating effect on NB4 cells (NBT)", "format": "cell-based", "conditions": "Homo sapiens, NB-4, 72 h, NB4, three days, read-out: AC50 (activating concentration for 50% cellular differentiation) ± SD", "description": "NB4 cells were plated at a density of 150000 cells/ml in RPMI 1640 medium containing 10% foetal serum. The cells were then treated with ST1879 or ST1898 at decreasing concentrations starting from 0.4 μM to 0.01 μM and placed in an incubator for three days without any change of the media. To measure the differentiating effect 500000 cells from each sample were collected, centrifuged and resuspended in 1 ml of RPMI 1640 medium containing 10% serum, 1 mg/ml nitroblue tetrazolium (NBT) and 100 ng of PMA (phorbol myristyl acetate). The cells, resuspended as above, were incubated at 37° C. for 60 minutes. At the conclusion of incubation the cells were centrifuged and the precipitate resuspended in 1 ml of PBS containing 10% Triton ×100. The samples were sonicated until lysed and then read by spectrophotometer at a wavelength of 540 nm. Samples containing differentiated cells turn a purplish colour whilst the control samples and/or these with non differentiated cells remain white or much less intensely coloured. The pro-differentiating action of ST1879 or of ST1898 has been evaluated in terms of AC50 (activating concentration for 50% cellular differentiation) as reported below."}, "[7]": {"conditions": "bFGF 0.05 + compound 0.25 μg/embryo"}},
  "note": "Values joined by “and” are separate entries in the source; they are usually repeats but may differ in a detail not shown here. Equal values may be shown once.",
  "data": [
    {"molecule": "bFGF: basic Fibroblast Growth Factor, inducer of vasoproliferation in the CAM model [reference compound]", "values": [
      {"measurement": "12th day (72 hours), number of vessels per sponge", "setting": "[1]; bFGF 0.05 μg/embryo alone", "value": "28 ± 2 vessels per sponge and 19 ± 1 vessels per sponge and 22 ± 1 vessels per sponge"},
      {"measurement": "Δvessels", "setting": "[1]; bFGF 0.05 μg/embryo alone", "value": "24 ± 1 vessels per sponge and 15 ± 1 vessels per sponge and 19 ± 1 vessels per sponge"}
    ]},
    {"molecule": "CC1=C(/C=C/C(C)=C/C=C/C(C)=C/C(=O)O)C(C)(C)CCC1", "note": "[trans-RA (7), trans-Retinoic Acid]", "values": [
      {"measurement": "inhibition (%) at 0.5 μM", "setting": "[2]", "value": 10, "unit": "%"},
      {"measurement": "IC50", "setting": "[2]", "value": "> 500", "unit": "nM"}
    ]},
    {"molecule": "O=C(O)/C=C/c1ccc(-c2ccc(O)c(C34CC5CC(CC(C5)C3)C4)c2)c(Cl)c1", "note": "[3-Cl-AHPC (5)]", "values": [
      {"measurement": "inhibition (%) at 0.5 μM", "setting": "[2]", "value": 60, "unit": "%"},
      {"measurement": "IC50", "setting": "[2]", "value": 300, "unit": "nM"}
    ]},
    {"molecule": "O=C(O)c1ccc2c(Cl)c(-c3ccc(O)c(C45CC6CC(CC(C6)C4)C5)c3)ccc2c1", "note": "[5-Cl-AHPN (2)]", "values": [
      {"measurement": "inhibition (%) at 0.5 μM", "setting": "[2]", "value": 45, "unit": "%"}
    ]},
    {"molecule": "CC(=O)O[C@H]1C(=O)[C@@]2(C)[C@H]([C@H](OC(=O)c3ccccc3)[C@]3(O)C[C@H](OC(=O)[C@H](O)[C@@H](NC(=O)c4ccccc4)c4ccccc4)C(C)=C1C3(C)C)[C@]1(OC(C)=O)CO[C@@H]1C[C@@H]2O", "note": "[Taxol, reference compound]", "values": [
      {"measurement": "BWL % Max", "setting": "[3]", "value": 4, "unit": "%"},
      {"measurement": "Lethality", "setting": "[3]", "value": "0/8"},
      {"measurement": "TVI % ± SE", "setting": "[3]", "value": 0, "unit": "%"}
    ]},
    {"molecule": "COc1ccc(-c2ccc(/C=C/CO)cc2)cc1C12CC3CC(CC(C3)C1)C2", "note": "[Example 7, E-4-(3-(1-adamantyl)-4-methoxyphenyl)cinnamyl alcohol]", "values": [
      {"measurement": "melting point", "value": 148, "unit": "°C"}
    ]},
    {"molecule": "COc1ccc(-c2ccc(/C=C/C(=O)O)cc2)cc1C12CC3CC(CC(C3)C1)C2", "note": "[ST1898, E-4-(3-(1-adamantyl)-4-methoxyphenyl)cinnamic acid]", "values": [
      {"measurement": "IC50", "setting": "[4]", "value": "1700 ± 200", "unit": "nM"},
      {"measurement": "IC50", "setting": "[5]", "value": "8800 ± 600", "unit": "nM"},
      {"measurement": "Δvessels, change vs bFGF alone", "setting": "[1]; [7]", "value": "(−71%)"},
      {"measurement": "12th day (72 hours), number of vessels per sponge", "setting": "[1]; [7]", "value": "10 ± 1", "unit": "vessels per sponge"},
      {"measurement": "Δvessels", "setting": "[1]; [7]", "value": "7 ± 1", "unit": "vessels per sponge"},
      {"measurement": "IC50", "setting": "[6]", "value": "380 ± 20", "unit": "nM"},
      {"measurement": "AC50", "setting": "NB4 cells", "value": 19, "unit": "nM"}
    ]}
  ]
}
